One assay concerns ACHN cell line. Briefly: drug screen of the SelleckChem kinase inhibitor library with and without 5 uM SU-329, Cell-Titer Glo after 5 days. The format is cell-based.
Conditions: not given
In the case of `N#CC(=C(/N)Sc1ccccc1N)/C(C#N)=C(\N)Sc1ccccc1N` [U0126-EtOH, U0126, reference compound], the log2fc is listed as −0.3988.

The same assay, now with this note: kinase inhibitor at 200 nM with and without 5 uM SU329; ACHN cell line; 5 days; Cell-Titer Glo.
For the compound `CN(C)CCCn1cc(C2=C(c3c[nH]c4ccccc34)C(=O)NC2=O)c2ccccc21` [Bisindolylmaleimide I (GF109203X)], the log2fc was −0.2332.
Same read-out and setting: the value for `Cc1cc(N2CCOCC2)cc2[nH]c(-c3c(NC[C@@H](O)c4cccc(Cl)c4)cc[nH]c3=O)nc12` [BMS-536924] was 0.4161.
On the same count and under the same terms, in the case of `Cc1c(F)cc(C(=O)NC2CC2)cc1-c1ccc(C(=O)NCC(C)(C)C)cn1` [Losmapimod (GW856553X)] it was −0.5236.
The same measure, in the same setting: the value for `Cc1ccc(-n2nc(C(C)(C)C)cc2NC(=O)Nc2ccc(OCCN3CCOCC3)c3ccccc23)cc1` [Doramapimod (BIRB 796)] was −0.5477.
On to `COc1cc2ncnc(Nc3cccc(Cl)c3)c2cc1OC` [AG-1478 (Tyrphostin AG-1478), AG-1478, reference compound], for which the log2fc came to 0.2903.
Compound `O=C1NC(=O)[C@@H](c2cn3c4c(cccc24)CCC3)[C@@H]1c1c[nH]c2ccccc12` [Tivantinib (ARQ 197)] came in with a log2fc of 0.2709.
Still for that read-out and setting: in the case of `COc1cc2c(Nc3ccc(NC(=O)c4ccccc4)cc3)ncnc2cc1OCCCN1CCOCC1` [ZM 447439] it was 0.52; in that of `COc1cc2ncnc(Nc3ccc(O)c(Br)c3)c2cc1OC` [WHI-P154], 0.511; in that of `CC(C)n1nc(-c2ccc3oc(N)nc3c2)c2c(N)ncnc21` [INK 128 (MLN0128)], −0.2018.
Same read-out and setting: the value for `CC(C)(C)c1cc(C=C(C#N)C#N)cc(Br)c1O` [AG-1024] was −0.3636; that for `Cc1cnc(-c2cnc(NCCNc3ccc(C#N)cn3)nc2-c2ccc(Cl)cc2Cl)[nH]1.Cl` [CHIR-99021 (CT99021) HCl] was 0.9577; that for `O=C(NC(NC(=S)Nc1ccc(F)c([N+](=O)[O-])c1)C(Cl)(Cl)Cl)C(c1ccccc1)c1ccccc1` (stereo not drawn) [CGK 733] was 0.1923.
Take `CCS(=O)(=O)Nc1ccc2c(c1)/C(=C(/Nc1ccc(CN3CCCCC3)cc1)c1ccccc1)C(=O)N2` [Hesperadin]: the log2fc is 0.1006.
Still for that read-out and setting: in the case of `CC(C)c1cnn2c(NCc3ccccc3)cc(NCCCCCCN)nc12.Cl` [BS-181 HCl] it was 0.09476.
Still for that read-out and setting: in the case of `C[C@@H]1COC(Nc2ccc3ncnc(Nc4ccc(OCc5nccs5)c(Cl)c4)c3c2)=N1` [Varlitinib] it was 0.7999.
Turning to `COc1cccc(-c2cc(=O)c3ccccc3o2)c1N` [PD98059, reference compound], the log2fc worked out at 0.3369.
The same measure, in the same setting: the value for `C=CC(=O)Nc1ccc2ncnc(Nc3cccc(Br)c3)c2c1` [PD168393] was 0.5991; that for `CN1CCN(C2CCN(C(=O)Nc3cc(Oc4ccc(NC(=O)C5(C(=O)Nc6ccc(F)cc6)CC5)c(F)c4)ccn3)CC2)CC1` [Golvatinib (E7050)] was −0.1341; that for `Cc1ccc(C(=O)Nc2cccc(C(F)(F)F)c2)cc1Nc1nc(-c2cccnc2)nc2c1cnn2C` [NVP-BHG712] was 0.02396.
On the same count and under the same terms, in the case of `CC(C)(C)c1cc(C=C(C#N)C#N)cc(C(C)(C)C)c1O` [Tyrphostin 9] it was −0.5358.
The same measure, in the same setting: in the case of `C[C@H](NC(=O)/C(C#N)=C/c1cccc(Br)n1)c1ccccc1` [WP1066] it was −0.4551; in that of `Cn1cc(-c2ccc3nnc(C(F)(F)c4ccc5ncccc5c4)n3n2)cn1` [JNJ-38877605], 0.02907; in that of `CN(c1ncccc1CNc1nc(Nc2ccc3c(c2)CC(=O)N3)ncc1C(F)(F)F)S(C)(=O)=O` [PF-562271], 0.8258.
`C[C@@H]1COCCN1c1cc(C2(S(C)(=O)=O)CC2)nc(-c2cccc3[nH]ccc23)n1` [AZ20] showed a log2fc of −0.01528.
The same measure, in the same setting: the value for `COc1cc(Nc2c(C#N)cnc3cc(OCCCN4CCN(C)CC4)c(OC)cc23)c(Cl)cc1Cl` [Bosutinib (SKI-606)] was −0.1583.
Still for that read-out and setting: in the case of `CNC(=O)c1cc(COc2nnc(Nc3ccc(Cl)cc3)c3ccoc23)ccn1` [Telatinib] it was 0.2479.
The same measure, in the same setting: in the case of `C[C@@H](Oc1cc(-n2cnc3ccc(CN4CCN(C)CC4)cc32)sc1C(N)=O)c1ccccc1C(F)(F)F` [GSK461364] it was 0.9925.
`COc1cccc2cc(-c3nc([C@H]4CC[C@H](C(=O)O)CC4)n4ncnc(N)c34)[nH]c12` [OSI-027] displayed a log2fc of −1.494.
Still for that read-out and setting: the value for `Cn1cc(C2=C(c3ccc(Cl)cc3Cl)C(=O)NC2=O)c2ccccc21` [SB216763] was 0.4708; that for `Nc1ncnc2c1c(-c1cccc(OCc3ccccc3)c1)cn2C1CC(CN2CCC2)C1` (stereo not drawn) [NVP-AEW541] was 0.2179.
On the same count and under the same terms, the value for `CNC(=O)Nc1ccc(-c2nc(N3CC4CCC(C3)O4)c3cnn(C4CCC5(CC4)OCCO5)c3n2)cc1` [WYE-125132 (WYE-132)] was 0.04946; that for `O=c1[nH]c2ccc(Cl)cc2c(N[C@@H]2CN3CCC2CC3)c1-c1nc2ccccc2[nH]1` [CHIR-124] was 1.257; that for `CC(C)(C)NS(=O)(=O)c1cncc(-c2cc(F)c3nc(N)nn3c2)c1` [CZC24832] was 0.2139.
The compound `COc1cc(N2CCC(N)CC2)ccc1Nc1ncc(Cl)c(-c2c[nH]c3ccccc23)n1` [AZD3463] gave a log2fc of −0.06328.
The same measure, in the same setting: the value for `O=C(O)c1ccc(-c2c[nH]c3ncc(-c4ccccc4)cc23)cc1C1CCCC1` [GSK650394] was 0.3205; that for `CNC(=O)CN1CCC(Oc2cc3c(Nc4cccc(Cl)c4F)ncnc3cc2OC)CC1` [Sapitinib (AZD8931), AZD8931, reference compound] was 0.358; that for 10058-F4 was 0.2472.
Still for that read-out and setting: the value for `CCN1CCN(Cc2ccc(Nc3ncc(F)c(-c4cc(F)c5nc(C)n(C(C)C)c5c4)n3)nc2)CC1` [abemaciclib (LY2835219)] was 0.1618.
The same measure, in the same setting: in the case of `Cl.Cl.Clc1ccc(Nc2nnc(Cc3ccncc3)c3ccccc23)cc1` [Vatalanib (PTK787) 2HCl] it was −0.4289; in that of `Clc1ccc(C2(c3ccc(-c4cn[nH]c4)cc3)CCNCC2)cc1` [AT7867], −0.935.
With `Cc1cnc(NC(=O)Nc2cc(Br)c(C)cc2OC[C@@H]2CNCCO2)cn1` [LY2603618], the log2fc is −0.1739.
Still for that read-out and setting: the value for `O=C(NOCC(O)CO)c1cc(Br)c(F)c(F)c1Nc1ccc(I)cc1F` (stereo not drawn) [PD318088] was 0.4184; that for `Cc1ccccc1-n1c(Cn2ncc3c(N)ncnc32)nc2cccc(C)c2c1=O` [PIK-293] was 0.1249; that for `C[C@@H]1CCN(C(=O)CC#N)C[C@@H]1N(C)c1ncnc2[nH]ccc12` [Tofacitinib (CP-690550, Tasocitinib)] was 0.6421.
For KX2-391, the log2fc is 0.3892.
The same measure, in the same setting: the value for `C=CCc1ccc(O)c(-c2ccc(O)c(CC=C)c2)c1` [Honokiol] was 0.09484.
The same measure, in the same setting: the value for `Oc1c2ccccc2c2c3c(cccc13)N=N2` [SP600125, reference compound] was 0.06823; that for `CO[C@H]1C[C@@H]2CC[C@@H](C)[C@@](O)(O2)C(=O)C(=O)N2CCCC[C@H]2C(=O)O[C@H]([C@H](C)C[C@@H]2CC[C@H](n3cnnn3)[C@H](OC)C2)CC(=O)[C@H](C)/C=C(\C)[C@@H](O)[C@@H](OC)C(=O)[C@H](C)C[C@H](C)/C=C/C=C/C=C/1C` [Zotarolimus (ABT-578)] was −1.34.
In turn, `O=C(Nc1cc(C(F)(F)F)cc(C(F)(F)F)c1)c1cc(Cl)ccc1O` [IMD 0354] had a log2fc of 0.2086.
`CN1CCN(c2cccc(Nc3nc4c(-c5ccc(S(C)(=O)=O)cc5)cccn4n3)c2)CC1` [CEP-33779] yielded a log2fc of −0.6078.
In the case of `COC(=O)c1ccc2c(c1)NC(=O)/C2=C(\Nc1ccc(N(C)C(=O)CN2CCN(C)CC2)cc1)c1ccccc1` [Nintedanib (BIBF 1120)], the log2fc is on record as 0.7859.
In the case of `C=CC(=O)N1CCC[C@@H](n2nc(-c3ccc(Oc4ccccc4)cc3)c3c(N)ncnc32)C1` [Ibrutinib (PCI-32765)], the log2fc was 1.289.
On the same count and under the same terms, the value for `O=C(c1cccc(Cl)c1F)N1CCN(Cc2cccc(Nc3nccs3)n2)CC1` [MK-8745] was −0.3779; that for `CCN(CC)CCCCNc1ncc2cc(-c3cc(OC)cc(OC)c3)c(NC(=O)NC(C)(C)C)nc2n1` [PD173074] was 0.1032.
On the same count and under the same terms, the value for `O=c1cc(-c2cccc3c2Sc2ccccc2S3)oc(N2CCOCC2)c1` [KU-55933 (ATM Kinase Inhibitor)] was 0.3053; that for `CCCNC(=O)Nc1ccc(Oc2ncnc3cc(OC)c(OC)cc23)cc1Cl` [KRN 633] was 0.02524.
In turn, `Cc1cc(C(C)Nc2ccccc2)c2nc(N3CCOCC3)cc(=O)n2c1` (stereo not drawn) [TGX-221] registered a log2fc of −0.3415.
The same measure, in the same setting: the value for `COc1cc2c(c(OC)c1OC)-c1c(cc3c(c1OC)OCO3)CC(C)C(C)C2` (stereo not drawn) [Schisandrin B (Sch B)] was 0.5674; that for `CCS(=O)(=O)c1cccc(-c2cc(C(=O)NC3CCN(C)CC3)c(C)c3[nH]c4ncc(C)cc4c23)c1` [TAK-901] was 0.2818; that for `NC(=O)c1ccc(N(C(N)=O)c2c(F)cccc2F)nc1-c1ccc(F)cc1F` [VX-702] was −0.1168.
Still for that read-out and setting: the value for `CCCS(=O)(=O)Nc1ccc(F)c(C(=O)c2c[nH]c3ncc(Cl)cc23)c1F` [PLX-4720] was −0.05066; that for `CCCS(=O)(=O)Nc1ccc(F)c(C(=O)c2c[nH]c3ncc(-c4ccc(Cl)cc4)cc23)c1F` [Vemurafenib (PLX4032, RG7204), vemurafenib, reference compound] was 0.009154.
On the same count and under the same terms, the value for `CN1CCN(c2ccc3nc(-c4c(N)c5c(F)cccc5[nH]c4=O)[nH]c3c2)CC1` [Dovitinib (TKI-258, CHIR-258)] was 0.4746; that for Skepinone-L was −0.7997; that for GZD824 Dimesylate was 1.434.
In turn, `CCOC(=O)c1cnc2ccc(-c3cncc(NS(=O)(=O)c4ccccc4)c3)cn12` [HS-173] yielded a log2fc of 0.4717.
`Cl.O=S(=O)(c1cccc2cnccc12)N1CCCNCC1` [Fasudil (HA-1077) HCl]: the log2fc came to 0.1457.
The same measure, in the same setting: the value for `CSc1cccc(Nc2ncc3cc(-c4c(Cl)cccc4Cl)c(=O)n(C)c3n2)c1` [PD173955] was −0.1932.

(Values after US12195490B2, “STRAD-binding agents and uses thereof” (The Regents of the University of California, priority 2020, dated 2025).)
